In BindingDB's records for doi:10.3109/14756366.2013.782024 (NAS of Ukraine, 2014) one finds IC50 data, which are given here for 22 compounds.

pIC50: −log10 of the molar value.

The target in this experiment is Casein kinase II subunit alpha/beta (Homo sapiens, UniProt P68400). As to the kind of experiment: In Vitro Kinase Assay. To be noted: pH 7.5; 30 °C. As for the experimental part:
Each test was performed twice in a total reaction volume of 30 μL, containing 6 μg of peptide substrate RRRDDDSDDD (New England Biolabs (UK) Ltd., Herts, UK); 10 units of recombinant human CK2 holoenzyme (New England Biolabs); 50 μM ATP and γ-labeled 32P ATP, diluted to specific activity 100 μCi/mM; CK2 buffer (20mM Tris-HCl, pH 7.5; 50mM KCl; 10mM MgCl2) and inhibitor in varying concentrations. Incubation time was 20 min at 30 °C. The reaction was stopped by adding an equal volume of 10% o-phosphoric acid and the reaction mixture was loaded onto 20-mm discs of phosphocellulose paper (Whatman plc, Kent, UK). Discs were washed three times with 1% o-phosphoric acid solution, air-dried at room temperature, and counted by the Cherenkov method in a beta-counter (LKB). As negative control an equal volume of DMSO was added to the reaction mixture. Quercetin, a known CK2 inhibitor, was used as an inhibition positive control. The final concentration of quercetin was 0.55 μM (which inhibited CK2 activity by 50%).
What is called pIC50 is −log10 of the IC50, conventionally taken in molar units. High values mean a low IC50, low ones a high IC50. Compound `CC1CS(=O)(=O)N(c2ccc(C(=O)Nc3ccc(C(=O)O)c(O)c3)cc2)C1=O` (configuration not stated) [2-hydroxy-4-{[4-(4-methyl-1,1-dioxido-3-oxoisothiazolidin-2-yl)benzoyl]amino}benzoic acid (27)] showed a pIC50 of 4.71.
Under `CC1CS(=O)(=O)N(c2ccc(C(=O)Nc3ccc(O)c(C(=O)O)c3)cc2)C1=O` (configuration not stated) [2-hydroxy-5-{[4-(4-methyl-1,1-dioxido-3-oxoisothiazolidin-2-yl)benzoyl]amino}benzoic acid (25)] stands under 4.52; under `O=C(O)c1cccc(NC(=O)c2ccc(N3C(=O)CCS3(=O)=O)cc2Cl)c1` [3-{[2-chloro-4-(1,1-dioxido-3-oxoisothiazolidin-2-yl)benzoyl]amino}benzoic acid (31)], 5.82.
For `CC1CS(=O)(=O)N(c2ccc(C(=O)Nc3cc(C(=O)O)ccc3O)c(Cl)c2)C1=O` (configuration not stated) [3-{[2-chloro-4-(4-methyl-1,1-dioxido-3-oxoisothiazolidin-2-yl)benzoyl]amino}-4-hydroxybenzoic acid (37)], the pIC50 is 5.43.
Under `CC1CS(=O)(=O)N(c2ccc(C(=O)Nc3cccc(C(=O)O)c3)c(Cl)c2)C1=O` (configuration not stated) [3-{[2-chloro-4-(4-methyl-1,1-dioxido-3-oxoisothiazolidin-2-yl)benzoyl]amino}benzoic acid (35)] stands 5.44; under `O=C(O)c1cccc(NC(=O)c2ccc(N3C(=O)CCS3(=O)=O)cc2)c1` [3-{[4-(1,1-dioxido-3-oxoisothiazolidin-2-yl)benzoyl]amino}benzoic acid (21)], 5.74.
Then `CC1(C)CS(=O)(=O)N(c2ccc(C(=O)Nc3cccc(C(=O)O)c3)cc2)C1=O` [3-{[4-(4,4-dimethyl-1,1-dioxido-3-oxoisothiazolidin-2-yl)benzoyl]amino}benzoic acid (28)], with 5.10; and `CC1CS(=O)(=O)N(c2ccc(C(=O)Nc3cccc(C(=O)O)c3)cc2)C1=O` (configuration not stated) [3-{[4-(4-methyl-1,1-dioxido-3-oxoisothiazolidin-2-yl)benzoyl]amino}benzoic acid (24)], with 5.51.
With `CC1CS(=O)(=O)N(c2ccc(C(=O)Nc3cc(C(=O)O)ccc3O)cc2)C1=O` (configuration not stated) [4-hydroxy-3-{[4-(4-methyl-1,1-dioxido-3-oxoisothiazolidin-2-yl)benzoyl]amino}benzoic acid (26)], the pIC50 was 4.80.
Then `O=C(O)c1ccc(NC(=O)c2ccc(N3C(=O)CCS3(=O)=O)cc2Cl)cc1O` [4-{[2-chloro-4-(1,1-dioxido-3-oxoisothiazolidin-2-yl)benzoyl]amino}-2-hydroxybenzoic acid (33)], with 5.52; and `O=C(O)c1ccc(NC(=O)c2ccc(N3C(=O)CCS3(=O)=O)cc2Cl)cc1` [4-{[2-chloro-4-(1,1-dioxido-3-oxoisothiazolidin-2-yl)benzoyl]amino}benzoic acid (34)], with under 4.52; and `CC1CS(=O)(=O)N(c2ccc(C(=O)Nc3ccc(C(=O)O)c(O)c3)c(Cl)c2)C1=O` (configuration not stated) [4-{[2-chloro-4-(4-methyl-1,1-dioxido-3-oxoisothiazolidin-2-yl)benzoyl]amino}-2-hydroxybenzoic acid (38)], with 5.46.
In turn, `O=C(Nc1ccc(C(=O)O)c(O)c1)c1ccc(N2C(=O)CCS2(=O)=O)cc1` [4-{[4-(1,1-dioxido-3-oxoisothiazolidin-2-yl)benzoyl]amino}-2-hydroxybenzoic acid (23)] gave a pIC50 of 4.85.
Under `CC1(C)CS(=O)(=O)N(c2ccc(C(=O)Nc3ccc(C(=O)O)c(O)c3)cc2)C1=O` [4-{[4-(4,4-dimethyl-1,1-dioxido-3-oxoisothiazolidin-2-yl)benzoyl]amino}-2-hydroxybenzoic acid (30)] stands under 4.52.
Regarding `CC1CS(=O)(=O)N(c2ccc(C(=O)NCCCC(=O)O)cc2)C1=O` (configuration not stated) [4-{[4-(4-methyl-1,1-dioxido-3-oxoisothiazolidin-2-yl)benzoyl]amino}butanoic acid (42)], the pIC50 is under 4.52.
Then `O=C(O)c1cc(NC(=O)c2ccc(N3C(=O)CCS3(=O)=O)cc2Cl)ccc1O` [5-{[2-chloro-4-(1,1-dioxido-3-oxoisothiazolidin-2-yl)benzoyl]amino}-2-hydroxybenzoic acid (32)], with 5.05; and `CC1CS(=O)(=O)N(c2ccc(C(=O)Nc3ccc(O)c(C(=O)O)c3)c(Cl)c2)C1=O` (configuration not stated) [5-{[2-chloro-4-(4-methyl-1,1-dioxido-3-oxoisothiazolidin-2-yl)benzoyl]amino}-2-hydroxybenzoic acid (36)], with 5.22.
Compound `O=C(Nc1ccc(O)c(C(=O)O)c1)c1ccc(N2C(=O)CCS2(=O)=O)cc1` [5-{[4-(1,1-dioxido-3-oxoisothiazolidin-2-yl)benzoyl]amino}-2-hydroxybenzoic acid (22)] showed a pIC50 of 5.10.
`CC1(C)CS(=O)(=O)N(c2ccc(C(=O)Nc3ccc(O)c(C(=O)O)c3)cc2)C1=O` [5-{[4-(4,4-dimethyl-1,1-dioxido-3-oxoisothiazolidin-2-yl)benzoyl]amino}-2-hydroxybenzoic acid (29)] had a pIC50 of under 4.52.
Under `COC(=O)c1cc(NC(=O)c2ccc(N3C(=O)C(C)CS3(=O)=O)cc2Cl)ccc1O` (configuration not stated) [Methyl 5-{[2-chloro-4-(4-methyl-1,1-dioxido-3-oxoisothiazolidin-2-yl)benzoyl]amino}-2-hydroxybenzoate (39)] stands under 4.52; under `CC1CS(=O)(=O)N(c2ccc(C(=O)NCCC(=O)O)cc2)C1=O` (configuration not stated) [N-[4-(4-methyl-1,1-dioxido-3-oxoisothiazolidin-2-yl)benzoyl]-b-alanine (41)], under 4.52; under `CC1CS(=O)(=O)N(c2ccc(C(=O)NCC(=O)O)cc2)C1=O` (configuration not stated) [N-[4-(4-methyl-1,1-dioxido-3-oxoisothiazolidin-2-yl)benzoyl]glycine (40)], under 4.52.
